Data published in paper PMC10452181, “Synthesis and Biological Evaluation of Cyclobutane-Based β3 Integrin Antagonists: A Novel Approach to Targeting Integrins for Cancer Therapy” (Cancers, 2023).
Like-named read-outs stand apart in the source and are kept apart here.

How the values were obtained:
M14 = assay: Cytotoxicity by MTT assay, 96 h, M14; type: cell-based, human; settings: MTT, 96 hours
Experimental: (§1) Before use in cell-based assays of integrin function, the effect of compounds on cell proliferation was tested using the MTT assay to avoid adhesion results being confounded by cell death (Supplementary Table S1). The effect of compounds on cell adhesion was then initially tested at a single, nontoxic concentration to identify active antagonists for further characterisation; those displaying a promising activity in the adhesion assay were tested at a wider range of concentrations to determine the IC50 (Table 2). […] Nevertheless, it is a cost-effective initial screening method. page 4: Table S1. Cytotoxicity of compounds on the cell lines used in the functional assays (measured by MTT assay). Cells (2000 cells/well for Sk-Mel-2; 1 x 10^4 cells/mL for M14) were incubated for 96 hours at 37 ° C in a total volume of 200 μL/well (180 μL medium + 20 μ L test compound solution). After 96 hours, the medium was replaced by fresh medium containing 0.5 mg/ml (end conc.) MTT per well, incubated for 4 h then the plate processed and read as described in the main text. […] ICT9053 41 naphthyridine 1 NHSO2Mes H Ester 52.6 ± 0.6 72.7 ± 9.8 ICT9065 42 naphthyridine 1 H H Ester >100 - ICT9079 43 naphthyridine 0 NHSO2Mes H Ester ~100 - ICT9061 44 naphthyridineT 1 NHSO2Mes H Ester 46.8 ± 10.7 - […] Ester 65.4 ± 11.1 >100 […] Ester 9.6 ± 5.7 >100 […] Ester >100 - […] Ester 54.6 ± 11.0 - […] Ester >5 3.3 ± 0.8 […] ICT9028 51 pyrimidine 2 NHSO2Ph H Acid >100 - ICT9031 52 pyrimidineT 1 NHSO2Mes H Acid >100 - ICT9090 53 pyrimidineT 2 NHSO2Mes H Acid >50 - ICT9029 54 pyrimidineT 2 NHSO2Ph H Acid >100 - ICT9063 55 naphthyridine 1 NHSO2Mes H Acid 61.7 ± 2.8 - […] Acid 45.5 ± 7.9 >100 […] 42.5 ± 1.8 >50 RGDS >50 - T trans configuration of cyclobutane sidechains.

αvβ3 = target: T1, αvβ3 (Homo sapiens, UniProt P05106+P06756); assay: Sk-Mel-2 cell adhesion to immobilised fibronectin (cell-binding assay, MTT readout); type: cell-based; settings: Sk-Mel-2 adhesion to Fn, mean ± SD
T1 construct: endogenous in cells; host or cells: SK-Mel-2 melanoma cells
T1 sequence (P06756 31-889 limits assumed): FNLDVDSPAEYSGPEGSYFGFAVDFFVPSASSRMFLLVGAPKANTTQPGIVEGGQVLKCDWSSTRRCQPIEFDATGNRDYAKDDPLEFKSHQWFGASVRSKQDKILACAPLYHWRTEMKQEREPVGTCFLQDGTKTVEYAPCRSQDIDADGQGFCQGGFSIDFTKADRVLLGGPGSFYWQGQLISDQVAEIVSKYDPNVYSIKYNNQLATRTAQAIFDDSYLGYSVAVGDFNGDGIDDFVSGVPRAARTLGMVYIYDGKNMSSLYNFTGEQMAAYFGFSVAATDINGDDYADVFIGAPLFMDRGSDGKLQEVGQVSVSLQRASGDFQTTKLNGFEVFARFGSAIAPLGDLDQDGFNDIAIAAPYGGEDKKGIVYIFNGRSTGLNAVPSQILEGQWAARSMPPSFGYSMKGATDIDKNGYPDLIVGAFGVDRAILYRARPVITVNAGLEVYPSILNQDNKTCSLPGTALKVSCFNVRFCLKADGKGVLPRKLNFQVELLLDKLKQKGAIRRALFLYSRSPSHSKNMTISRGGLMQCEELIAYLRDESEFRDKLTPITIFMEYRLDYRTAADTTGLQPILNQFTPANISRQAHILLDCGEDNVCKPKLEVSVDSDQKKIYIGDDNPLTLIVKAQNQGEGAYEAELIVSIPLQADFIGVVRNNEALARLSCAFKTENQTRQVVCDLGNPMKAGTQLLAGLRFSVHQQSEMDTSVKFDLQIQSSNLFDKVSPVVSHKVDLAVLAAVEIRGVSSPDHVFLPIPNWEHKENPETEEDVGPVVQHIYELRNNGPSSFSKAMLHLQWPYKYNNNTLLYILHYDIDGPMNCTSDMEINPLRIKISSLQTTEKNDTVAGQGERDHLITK
T1 sequence (P06756 891-1048 partner limits assumed): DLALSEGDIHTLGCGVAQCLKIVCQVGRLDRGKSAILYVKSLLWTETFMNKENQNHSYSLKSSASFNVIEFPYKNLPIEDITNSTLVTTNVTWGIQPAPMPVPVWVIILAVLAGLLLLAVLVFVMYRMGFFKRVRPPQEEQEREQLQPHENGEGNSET
T1 sequence (P05106 27-788): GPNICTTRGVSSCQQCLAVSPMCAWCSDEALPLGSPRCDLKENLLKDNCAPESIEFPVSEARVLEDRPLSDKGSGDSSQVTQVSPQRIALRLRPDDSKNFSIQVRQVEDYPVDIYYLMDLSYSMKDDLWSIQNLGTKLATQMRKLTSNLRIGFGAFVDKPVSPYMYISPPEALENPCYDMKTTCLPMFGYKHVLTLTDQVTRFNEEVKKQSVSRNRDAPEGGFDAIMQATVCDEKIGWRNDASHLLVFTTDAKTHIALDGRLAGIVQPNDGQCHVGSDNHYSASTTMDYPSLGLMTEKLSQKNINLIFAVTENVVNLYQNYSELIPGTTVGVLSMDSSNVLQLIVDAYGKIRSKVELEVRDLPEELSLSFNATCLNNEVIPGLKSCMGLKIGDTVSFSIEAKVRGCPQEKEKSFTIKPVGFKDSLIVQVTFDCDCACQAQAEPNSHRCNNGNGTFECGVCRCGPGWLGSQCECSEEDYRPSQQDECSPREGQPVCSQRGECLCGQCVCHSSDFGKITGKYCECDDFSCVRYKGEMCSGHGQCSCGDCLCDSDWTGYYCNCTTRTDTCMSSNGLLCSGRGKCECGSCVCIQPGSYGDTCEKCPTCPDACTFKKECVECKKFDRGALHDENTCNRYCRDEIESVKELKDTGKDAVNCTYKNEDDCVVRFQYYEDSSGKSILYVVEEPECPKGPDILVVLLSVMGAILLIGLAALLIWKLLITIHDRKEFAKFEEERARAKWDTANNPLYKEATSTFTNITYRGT
Experimental: First, 96-well plates (Corning, VWR) were coated overnight at 4 °C with 0.5 μg/well fibronectin (Sigma). SK-Mel-2 cells were trypsinised, washed and resuspended in RPMI medium only at 10^5 cells/mL. Cells (100 µL/well) were treated with compound (DMSO final concentration 0.1%) at the indicated concentration for 4 hrs on a rotary shaker. Plates were washed (3 × PBS) and blocked with PBS/5% BSA for 2 hrs at 37 °C prior to adding the cells. Cells were incubated on the plates at 37 °C in a humidified chamber with 5% CO2 for 1 hr. The plates were washed 3× with PBS and a 200 µL/well RPMI medium containing 10% FCS added. The plates were incubated overnight at 37 °C as above. Finally, 0.5 mg/mL of 3-(4,5-dimethythiazol-2-yl)-2,5-diphenyl tetrazolium bromide (MTT) was added to each well and the plates incubated for a further 4 h. The medium was removed, and the insoluble formazan dissolved in 150 µL of DMSO. Absorbance was measured at 540 nm using a Thermo Multiskan EX (Thermofisher, UK)and Ascent Software (v2.6). Total binding was determined based on controls lacking any compounds (100% binding) in fibronectin-coated wells and uncoated wells blocked with BSA (0% binding) and corrected for background (no cells, fibronectin-coated).
As an initial test of anti-β3 activity, the ability of compounds to inhibit the adhesion of melanoma cells expressing high levels of αvβ3 and low levels of other RGD-binding integrins such as αvβ5 and α5β1 to immobilised fibronectin was evaluated.
Cells were seeded onto precoated plates in the presence or absence of putative antagonists and the number of adherent cells quantified colorimetrically.

M14 cells = assay: cells; type: cell-based, human; settings: M14 scratch wound, 24 h, mean ± SD; read-out: Migration IC50
Experimental: M14 cells (4 × 10^5/mL in RPMI 1640 medium) were seeded in six-well plates and incubated at 37 °C in a 5% CO2 humidified atmosphere for 48 h. The resulting confluent monolayer was scratched with a sterile P200 pipette tip to create a gap (approximately 2 cm in length and 650 μm in width) in the centre of the well. The medium was removed, and the cells washed with Hank’s balanced salt solution (HBSS) (1 mL) and replaced with a medium containing the test antagonist. After 24 h, the cells were washed twice with HBSS and fixed with ice-pre-cooled methanol for thirty minutes at −20 °C. Following hydration with two washes in PBS, the monolayers were counterstained with Harris’s haematoxylin solution for two minutes, then washed in tap water for one minute and left to dry at room temperature. The plates were observed using an inverted microscope, and digital images captured.
The anti-αvβ3 activity of selected compounds was confirmed in a wound-healing assay (Figure 3). A number of cell lines were initially investigated for their suitability in this assay. The Sk-Mel-2 cell line which adhered well to fibronectin in the adhesion assay migrated very slowly; therefore, M14 melanoma cells which combined high levels of αvβ3 with rapid migration and low levels of proliferation over the assay period (Supplementary Figure S4) were selected.

Sk-Mel-2 = assay: in vitro; type: cell-based, human
Experimental: as §1

αIIbβ3 = target: T2, αIIbβ3 (Homo sapiens, UniProt P05106+P08514); assay: αIIbβ3/fibrinogen purified protein binding ELISA; settings: for IC50: read-out: IC50 (αIIbβ3/Fg)
T2 construct: purchased Sigma
T2 sequence (P08514 32-887 limits assumed): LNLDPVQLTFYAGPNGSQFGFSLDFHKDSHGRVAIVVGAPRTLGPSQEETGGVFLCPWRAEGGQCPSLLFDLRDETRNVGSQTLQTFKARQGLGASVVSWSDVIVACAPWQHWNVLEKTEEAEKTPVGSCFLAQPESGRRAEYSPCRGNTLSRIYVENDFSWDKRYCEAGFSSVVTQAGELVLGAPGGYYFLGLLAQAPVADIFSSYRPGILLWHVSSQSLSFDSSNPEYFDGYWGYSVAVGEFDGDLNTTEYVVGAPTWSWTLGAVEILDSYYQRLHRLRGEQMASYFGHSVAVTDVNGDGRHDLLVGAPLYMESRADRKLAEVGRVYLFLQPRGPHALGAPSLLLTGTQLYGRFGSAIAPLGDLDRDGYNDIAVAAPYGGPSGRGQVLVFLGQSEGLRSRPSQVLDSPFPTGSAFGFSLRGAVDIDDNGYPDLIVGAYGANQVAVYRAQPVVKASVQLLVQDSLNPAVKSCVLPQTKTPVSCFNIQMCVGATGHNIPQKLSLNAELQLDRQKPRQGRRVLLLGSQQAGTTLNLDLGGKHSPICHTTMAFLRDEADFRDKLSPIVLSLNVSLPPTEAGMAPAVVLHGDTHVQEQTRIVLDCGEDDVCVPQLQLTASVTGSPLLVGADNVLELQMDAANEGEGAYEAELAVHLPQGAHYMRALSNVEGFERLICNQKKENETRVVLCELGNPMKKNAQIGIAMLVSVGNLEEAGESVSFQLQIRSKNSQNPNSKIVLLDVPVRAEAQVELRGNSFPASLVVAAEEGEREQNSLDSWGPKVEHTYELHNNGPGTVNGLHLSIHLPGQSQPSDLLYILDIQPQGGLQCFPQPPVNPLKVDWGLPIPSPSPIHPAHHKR
T2 sequence (P08514 891-1039 partner limits assumed): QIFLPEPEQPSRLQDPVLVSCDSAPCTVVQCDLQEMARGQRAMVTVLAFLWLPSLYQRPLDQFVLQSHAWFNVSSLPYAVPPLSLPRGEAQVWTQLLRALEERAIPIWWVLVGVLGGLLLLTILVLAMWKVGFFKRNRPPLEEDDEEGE
T2 sequence (P05106 27-788): as the sequence (P05106 27-788) above
Experimental: ELISA assays were performed as previously described with minor modifications. Briefly, serial dilutions of compounds were prepared in dimethyl sulfoxide (DMSO). C8 Maxi Immuno modules (Fisher Scientific) were incubated overnight at 4 °C with 0.5 μg/well of fibrinogen (Sigma) in sterile phosphate buffered saline (PBS, 0.2 g/L KCl, 8.0 g/L NaCl, 0.2 KH2PO4, 1.15 g/L Na2HPO4, pH 7.4). All subsequent wash steps were performed using 25 mM Tris, pH 7.6, 150 mM NaCl, 1 mM MnCl2, 1 mg/mL BSA, and binding/inhibition was carried out in 25 mM Tris, pH 7.6, 150 mM NaCl, 1 mM MnCl2, 1 mM MgCl2, 1 mM CaCl2, 1 mg/mL BSA.
Wells were washed and blocked with a blocking solution (PBS, 0.1% Tween 20, 3% BSA) for 1 h at 37 °C. Compounds were added to the wells at indicated concentrations (final 0.5% DMSO) in the presence of 0.5 µg/well αIIbβ3 (Sigma) and incubated at room temp for 1 h. After 3 washes, primary anti-αIIb (1:200 dilution, Santa Cruz Biotech, Heidelberg, Germany) and antigoat–HRP (1:500 dilution, Dako, Agilent, Santa Clara, CA, USA) were added at room temp for 1 h. The wells were washed and incubated with 0.1 mg/mL tetra-methylbenzidine (Sigma) for 25 min and the reaction was stopped with 1N H2SO4 (100 μL/well). The absorbance was measured at 450 nm using a Multiscan Spectrum reader (Thermo Scientific, Thermofisher, UK) and SkanIT RE (v2.4.4.5) software. Results were plotted as percent binding vs. log concentration and IC50 values determined.

platelet aggregation = assay: ADP-induced platelet aggregation in hirudin-treated whole blood (ex vivo); type: cell-based, human; settings: for % Inhibition (Platelet Aggregation) @ 100 μM: ADP 6.4 μM
Experimental: 2.7. Platelet Aggregation Assay
Platelet aggregation was measured in hirudin-anticoagulated whole blood from a healthy donor with ADP as agonist (end concentration 6.4 μM) using a Multiplate® impedance aggregometer (Dynabyte Informationssysteme GmbH, Munich, Germany). At 37 °C, cells were charged with 300 μL of saline, 300 μL of blood, 1 μL of compound (0.1% DMSO) and incubated for 3 min. The agonist was added and the increase in electrical impedance measured from 2 electrode pairs/cell for 6 min, transformed into arbitrary units (AU), and the area under the curve was calculated.

Adhesion % Inhibition @ 5 μM (αvβ3) [%] | IC50 (M14 cells) [µM] | IC50 (Sk-Mel-2) [µM] | % Inhibition (αIIbβ3/Fg) @ 50 μM (αIIbβ3; mean ± SD) [%] | IC50 (αIIbβ3; mean ± SD) [µM] | IC50 (αvβ3) [µM] | Adhesion % Inhibition @ 50 μM (αvβ3) [%] | IC50 (αIIbβ3; positive control) [µM] | IC50 (platelet aggregation; ADP-induced) [µM] | Structure (SMILES) | IC50 (M14) [µM] | % Inhibition (Platelet Aggregation) @ 100 μM (platelet aggregation) [%]
59.5 ± 24.0 | 1 ± 0.09 | 65.4 ± 11.1 | – | – | – | – | – | – | COC(=O)[C@H](CNC(=O)C1CC(CCc2ccc3c(n2)NCCC3)C1)NS(=O)(=O)c1ccccc1 (stereo partly drawn) [ICT9057 45, (S)-methyl 2-(phenylsulfonamido)-3-((1r,3r)-3-(2-(5,6,7,8-tetrahydro-1,8-naphthyridin-2-yl)ethyl)cyclobutanecarboxamido)propanoate] | > 100 | –
27.5 ± 32.9 | > 10 | 52.6 ± 0.6 | 29.4 ± 17.6 | > 100 | > 5 | – | – | – | COC(=O)[C@H](CNC(=O)[C@H]1C[C@H](CCc2ccc3cccnc3n2)C1)NS(=O)(=O)c1c(C)cc(C)cc1C [ICT9053 41, (S)-methyl 3-((1r,3r)-3-(2-(1,8-naphthyridin-2-yl)ethyl)cyclobutanecarboxamido)-2-(2,4,6-trimethylphenylsulfonamido)propanoate] | 72.7 ± 9.8 | –
– | – | > 100 | 96.2 ± 6.3 | 1.7 ± 2.4 | > 50 | 11.1 ± 2.4 | – | – | Cc1cc(C)c(S(=O)(=O)N[C@@H](CNC(=O)C2CC(CCNc3ncccn3)C2)C(=O)O)c(C)c1 (stereo partly drawn) [ICT9031 52, (S)-3-((1r,3s)-3-(2-(pyrimidin-2-ylamino)ethyl)cyclobutanecarboxamido)-2-(2,4,6-trimethylphenylsulfonamido)propanoic acid] | – | 11.1
20.9 ± 27.5 | > 10 | 72 ± 6.5 | – | – | – | – | – | – | COC(=O)[C@H](CNC(=O)[C@H]1C[C@H](CCCCNc2ncccn2)C1)NS(=O)(=O)c1c(C)cc(C)cc1C [ICT9018 26, (S)-methyl 3-((1r,3r)-3-(4-(pyrimidin-2-ylamino)butyl)cyclobutanecarboxamido)-2-(2,4,6-trimethylphenylsulfonamido)propanoate] | > 100 | –
– | – | > 50 | – | 0.39 ± 0.19 | 11 ± 11.6 | 68.9 ± 10.9 | – | – | Cc1cc(C)c(S(=O)(=O)N[C@@H](CNC(=O)[C@H]2C[C@@H](CCCNc3ncccn3)C2)C(=O)O)c(C)c1 [ICT9090 53, (S)-3-((1s,3s)-{3-[3-(Pyrimidin-2-ylamino)-propyl]-cyclobutanecarbonyl}-amino)-2-(2,4,6-trimethyl-benzenesulfonylamino)-propionic acid] | – | 21.2 ± 7.8
20.7 ± 11.9 | – | 61.7 ± 2.8 | 84.5 ± 8.6 | 4.1 ± 2.2 | > 5 | – | – | – | Cc1cc(C)c(S(=O)(=O)N[C@@H](CNC(=O)C2CC(CCc3ccc4cccnc4n3)C2)C(=O)O)c(C)c1 (stereo partly drawn) [ICT9063 55, (S)-3-{(1r,3r)-[3-(2-[1, 8] Naphthyridin-2-yl-ethyl)-cyclobutanecarbonyl]-amino}-2-(2,4,6-trimethyl-benzenesulfonylamino)-propionic acid] | – | 13.0
19.1 ± 14.2 | > 10 | 57.8 ± 1.9 | – | – | – | – | – | – | COC(=O)[C@H](CNC(=O)[C@H]1C[C@H](CCCNc2ncccn2)C1)NS(=O)(=O)c1c(C)cc(C)cc1C [ICT9020 24] | 36 ± 18.6 | –
– | – | – | – | – | – | – | 0.0237 ± 0.0031 | 0.24 | Cl.Cl.Cl.N=C(N)c1ccc(N2CCN(C3CCN(CC(=O)O)CC3)CC2)cc1 [GR144053, reference compound] | – | 100
72.3 ± 9.4 | 0.15 ± 0.03 | > 5 | – | – | – | – | – | – | COC(=O)[C@H](CNC(=O)[C@H]1C[C@@H](CCc2ccc3c(n2)NCCC3)C1)NS(=O)(=O)c1c(C)cc(C)cc1C [ICT9062 49, (S)-methyl 3-((1s,3s)-3-(2-(5,6,7,8-tetrahydro-1,8-naphthyridin-2-yl)ethyl)cyclobutanecarboxamido)-2-(2,4,6-trimethylphenylsulfonamido)propanoate] | 3.3 ± 0.8 | –
35.2 ± 19.1 | 9.5 ± 0.9 | 53.8 ± 3.2 | 15.6 ± 14.5 | – | 50 ± 5 | 48.3 ± 4.1 | – | – | COC(=O)[C@H](CNC(=O)C1CC(CCNc2ncccn2)C1)NS(=O)(=O)c1c(C)cc(C)cc1C (stereo partly drawn) [ICT9019 21, (S)-Methyl 3-((1s,3r)-3-(2-(pyrimidin-2-ylamino)ethyl)cyclobutanecarboxamido)-2-(2,4,6-trimethylphenylsulfonamido)propanoate] | > 100 | –
